Experimental data reported in US6468991B1, “Method of treating rhinoviral infections” (Cyclis Pharmaceuticals, Inc., priority 1997, dated 2002).
Read-outs that look alike come from different tables or passages of the source.

Legend:
[1] = tested on: Rhinovirus Type 2; assay: Rhinovirus yield reduction assay; conditions: for ED50 (virus yield): second experiment
Procedure: After the second experiment, the microplate was frozen at −70° C., then thawed and the medium removed from the virus-infected wells and individually assayed for virus titer by adding 0.2 ml of serial 10-fold dilutions to a fresh monolayer of cells. The viral CPE, read 6 days later, was used as an infectivity endpoint.

[2] = tested on: A-549 (human lung carcinoma) cells; assay: Cytotoxicity by microscopic morphological changes in uninfected toxicity control wells
[3] = tested on: Rhinovirus (RV) type 2, strain GPH; assay: Cytopathogenic effect (CPE) inhibition assay; conditions: for EC50: A549 cells
Procedure: Cells: A-549 (human lung carcinoma) cells were obtained from the American Type Culture Collection (ATCC, Rockville, Md.). They were grown in Dulbecco's Minimum Essential Medium (DMEM, Gibco, Gaithersburg, Md.) supplemented with 10% fetal bovine serum (FBS, HyClone Laboratories, Logan, Utah). When the cells were infected with virus, the test medium contained 2% FBS with 0.1% NaHCO3 and 50 μg gentamicin/ml.
Virus: Rhinovirus (RV) type 2, strain GPH was obtained from the ATCC. The virus was passed in cells and a pool prepared, ampuled, and frozen at −80° C. An aliquot of the frozen virus was titrated in A-549 cells prior to use in the following experiments.
A portion of the original solution was then diluted 1:3.95 in DMEM to provide a final concentration of 632 μM.
In both treatment methods, cells were plated in 96-well flat-bottomed tissue culture microplates (Corning Glass Works, Corning, N.Y.) at 5×10^4 cells/well in DMEM growth medium, and incubated overnight at 37° C. to establish cell monolayers in each well. […] Approximately 5-10 minutes later, four wells at each drug concentration were exposed to 0.1 ml of test medium with virus, with two additional wells exposed to 0.1 ml of sterile medium only, the latter to serve as toxicity controls. A group of 6 infected wells received no test compound to serve as virus controls, and 6 additional wells received sterile medium only as normal cell controls.
In the first treatment method, the test compound was added to the cells immediately prior to virus exposure and remained on the cells until viral cytopathogenic effect (CPE) was determined. In the second treatment method, fresh test compound (diluted in medium) was added to the cells daily, after removing the previous medium, until such time as the CPE was measured.
The CPE from each well was scored from 0 (normal cells) to 4 (maximal, 100%, CPE). Morphological changes due to cytotoxicity were determined microscopically; this was graded as T (100% toxicity characterized by complete cell sloughing from plate), PVH (80% cytotoxicity), PH (60% cytotoxicity), P (40% cytotoxicity), PSI (20% cytotoxicity) and 0 (normal cells). Fifty percent effective (virus-inhibitory) doses (ED50) and 50% cytotoxic doses (CD50) were calculated by regression analysis for the CPE inhibition experiment.

[4] = drug present without medium change

Compound | conclusion on inhibition of type 2 rhinovirus ([1]; overall conclusion from CPE and virus yield results) | ED90 concentration (virus yield) ([1]; same whether compound left on the cells or freshly added daily) | ED50 (virus yield) ([1]; drug changed every 24 hours) | ED50 (virus yield) [1, 4] | cytotoxicity observed ([2]; both experiments, A549 cells) | inhibition of viral CPE ([3]; both methods, both experiments, compared with ribavirin) | EC50 ([3]; read-out: ED50, Expt. 1, 5 days' incubation at 37° C., drug changed every 24 hours) | EC50 ([3]; read-out: ED50, Expt. 1, 5 days' incubation at 37° C., drug present without medium change) | EC50 ([3]; read-out: ED50, Expt. 2, 3 days' incubation at 37° C., drug changed every 24 hours) | EC50 ([3]; read-out: ED50, Expt. 2, 3 days' incubation at 37° C., drug present without medium change) | CD50 ([2]; Expt. 1, 5 days' incubation at 37° C., drug changed every 24 hours, A549 cells) | CD50 ([2]; Expt. 1, 5 days' incubation at 37° C., drug present without medium change, A549 cells) | CD50 ([2]; Expt. 2, 3 days' incubation at 37° C., drug changed every 24 hours, A549 cells) | CD50 ([2]; Expt. 2, 3 days' incubation at 37° C., drug present without medium change, A549 cells) | CD50 ([2]; Table 2, second experiment, drug changed every 24 hours) | CD50 ([2]; Table 2, second experiment, drug present without medium change) | EC50 ([3]; Enterovirus, A549, 72 h, read-out: ED50, Expt. 2, 3 days' incubation at 37° C., drug present without medium change) | EC50 ([3]; Enterovirus, A549, 120 h, read-out: ED50, Expt. 1, 5 days' incubation at 37° C., drug present without medium change) | EC50 ([3]; Enterovirus, A549, read-out: ED50, Expt. 1, 5 days' incubation at 37° C., drug changed every 24 hours) | EC50 ([3]; Enterovirus, A549, read-out: ED50, Expt. 2, 3 days' incubation at 37° C., drug changed every 24 hours)
2′,3′-cyclophosphateadenylyl(2′,5′)adenylyl-(2′,5′)adenosine [Papirine AIII] | significant inhibitor of type 2 rhinovirus | 8 µM | 8 µM | 8 µM | no cytotoxicity was observed | significant inhibition of viral CPE was seen that exceeded the activity of the known positive inhibitor, ribavirin | 24 µM | 25 µM | 63 µM | 63 µM | – | – | – | – | – | – | – | – | – | –
NC(=O)c1ncn([C@@H]2O[C@H](CO)[C@@H](O)[C@H]2O)n1 [Ribavirin] | – | – | 102 µM | 53 µM | – | – | – | – | – | – | 2290 µM | 2290 µM | 740 µM | 740 µM | 740 µM | 740 µM | 410 µM | 610 µM | 1190 µM | 186 µM
